EP4603105A1, “PHARMACEUTICAL COMPOSITION CONTAINING CYCLIC COMPOUND HAVING SELECTIVE KRAS INHIBITORY EFFECT AGAINST HRAS AND NRAS” (CHUGAI SEIYAKU KABUSHIKI KAISHA, priority 2022, dated 2024)

Assays:
HRAS wild-type protein = HRAS wild-type protein (Homo sapiens, UniProt P01112); test: Binding to HRAS by surface plasmon resonance (SPR), KD and KD ratio to KRAS; details: ratio of KD with respect to HRAS wild-type protein to KD with respect to KRAS
Outline: (§1)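 GDP-bound biotin-Avi RAS captured at ~100–300 RU, 30°C, pH 7.4 HBS containing 10 µM GDP, 10 mM MgCl2, 1 mM DTT, 0.01% Tween 20 and 4% DMSO. KD by 1:1 fitting.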

[1] = test system: human lung cancer strain NCI-H441; test: NCI-H441 cell proliferation inhibitory activity (CellTiter-Glo, 4 days); format: cell-based; details: 50% proliferation inhibitory concentration, four days, read-out: NCl-H441 IC50
Outline: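 Readout: […] after the ATP-based reagent. Compound: serial dilutions in dimethyl sulfoxide.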

[2] = molecular target: GDP-bound NRAS wild-type protein (Homo sapiens, UniProt P01111); test: Binding to NRAS by surface plasmon resonance (SPR), KD and KD ratio to KRAS; details: ratio of KD with respect to GDP-bound NRAS wild-type protein to KD with respect to KRAS
Chain of GDP-bound NRAS wild-type protein (P01111 whole entry): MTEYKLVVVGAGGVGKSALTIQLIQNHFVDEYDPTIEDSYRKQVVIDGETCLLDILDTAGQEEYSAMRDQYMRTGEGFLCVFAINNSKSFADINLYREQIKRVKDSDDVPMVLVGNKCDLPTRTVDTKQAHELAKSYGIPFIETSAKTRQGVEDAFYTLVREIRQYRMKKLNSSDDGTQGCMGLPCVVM
Outline: as §1

[3] = molecular target: GDP-bound KRAS wild-type protein (Homo sapiens, UniProt P01116); test: Binding to KRAS by surface plasmon resonance (SPR), dissociation constant KD; details: Single Cycle Kinetics, 1:1 binding model
Chain of GDP-bound KRAS wild-type protein (P01116 1-188 isoform P01116-2): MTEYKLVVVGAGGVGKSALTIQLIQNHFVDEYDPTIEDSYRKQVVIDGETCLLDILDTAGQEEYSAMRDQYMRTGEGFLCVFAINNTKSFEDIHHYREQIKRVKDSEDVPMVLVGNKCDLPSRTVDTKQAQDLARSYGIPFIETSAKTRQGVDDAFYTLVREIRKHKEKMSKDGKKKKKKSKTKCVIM
Outline: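 Biotinylated GDP-bound RAS was captured at about 100–300 RU. Running buffer: HBS pH 7.4, 10 mM MgCl2, 10 µM GDP, 1 mM DTT, 0.01% Tween 20, 4% DMSO.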

Chain of HRAS wild-type protein (P01112 whole entry): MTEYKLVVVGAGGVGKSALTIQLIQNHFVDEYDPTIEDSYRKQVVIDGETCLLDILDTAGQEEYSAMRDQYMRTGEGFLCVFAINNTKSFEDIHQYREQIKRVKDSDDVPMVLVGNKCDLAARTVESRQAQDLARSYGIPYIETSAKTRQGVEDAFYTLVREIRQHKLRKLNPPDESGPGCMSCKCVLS

For `CCO[C@@H]1C[C@H]2C(=O)NC3(CCC3)C(=O)N(C)[C@@H](C3CCCC3)C(=O)N(C)[C@H](C(=O)N3CCOCC3)CC(=O)N(C)[C@@H](CC3CC3)C(=O)N[C@@H]([C@@H](C)CC)C(=O)N(C)CC(=O)N(C)[C@H]3C/C=C\CCN(C3=O)[C@@H](Cc3ccc(C)cc3)C(=O)N(C)CC(=O)N[C@@H](CCc3cc(F)c(C(F)(F)F)c(F)c3)C(=O)N2C1` [PP1408], the “HRAS /KRAS” value (HRAS wild-type protein) was “A (a compound having 10 or more and less than 20 is denoted as A)”, the IC50 [1] was 37.6 nM and the “NRAS /KRAS” value [2] was “A (a compound having 10 or more and less than 20 is denoted as A)”. For the same molecule, the Kd [3] was 0.22 nM.
In the case of `CCO[C@@H]1C[C@H]2C(=O)NC3(CCC3)C(=O)N(C)[C@@H](C3CCCC3)C(=O)N(C)[C@H](C)CC(=O)N(C)[C@@H](CC3CC3)C(=O)N[C@@H]([C@@H](C)CC)C(=O)N(C)CC(=O)N(C)[C@H]3C/C=C\CCN(C3=O)[C@@H](Cc3ccc(C)cc3)C(=O)N(C)CC(=O)N[C@@H](CCc3cc(F)c(C(F)(F)F)c(F)c3)C(=O)N2C1` [PP1410], the “HRAS /KRAS” value (HRAS wild-type protein) is reported as “B (a compound having 3 or more and less than 10 is denoted as B)”, the IC50 [1] is reported as 51 nM and the “NRAS /KRAS” value [2] is reported as “B (a compound having 3 or more and less than 10 is denoted as B)”. The Kd [3] was 0.32 nM.
For `CCO[C@@H]1C[C@H]2C(=O)NC3(CCC3)C(=O)N(C)[C@@H](C3CCCC3)C(=O)N(C)[C@H](C)CC(=O)N(C)[C@@H](CC3CCCC3)C(=O)N[C@@H]([C@@H](C)CC)C(=O)N(C)CC(=O)N(C)[C@H]3C/C=C\CCN(C3=O)[C@@H](Cc3ccc(C)cc3)C(=O)N(C)CC(=O)N[C@@H](CCc3cc(F)c(C(F)(F)F)c(F)c3)C(=O)N2C1` [PP1413], the “HRAS /KRAS” value (HRAS wild-type protein) was “B (a compound having 3 or more and less than 10 is denoted as B)”, the IC50 [1] was 62.5 nM and the “NRAS /KRAS” value [2] was “B (a compound having 3 or more and less than 10 is denoted as B)”. It also gave a Kd [3] of 0.42 nM.
In the case of `CCO[C@@H]1C[C@H]2C(=O)NC3(CCC3)C(=O)N(C)[C@@H](C3CCCC3)C(=O)N(C)[C@H](C(=O)N(C)C)CC(=O)N(C)[C@@H](CC(C)C)C(=O)N[C@@H]([C@@H](C)CC)C(=O)N(C)CC(=O)N(C)[C@H]3C/C=C\CCN(C3=O)[C@@H](Cc3ccc(C)cc3)C(=O)N(C)CC(=O)N[C@@H](CCc3cc(F)c(C(F)(F)F)c(F)c3)C(=O)N2C1` [PP1414], the “HRAS /KRAS” value (HRAS wild-type protein) is reported as “B (a compound having 3 or more and less than 10 is denoted as B)”, the IC50 [1] is reported as 4.4 nM and the “NRAS /KRAS” value [2] is reported as “A (a compound having 10 or more and less than 20 is denoted as A)”. For the same molecule, the Kd [3] was 0.074 nM.
`CCO[C@@H]1C[C@H]2C(=O)NC3(CCC3)C(=O)N(C)[C@@H](C3CCCC3)C(=O)N(C)[C@H](C)CC(=O)N(C)[C@@H](CC(C)C)C(=O)N[C@@H]([C@@H](C)CC)C(=O)N(C)CC(=O)N(C)[C@H]3C/C=C\CCN(C3=O)[C@@H](Cc3ccc(C)cc3)C(=O)N(C)CC(=O)N[C@@H](CCc3cc(F)c(C(F)(F)F)c(F)c3)C(=O)N2C1` [PP1417] was tested, and the “HRAS /KRAS” value (HRAS wild-type protein) was “B (a compound having 3 or more and less than 10 is denoted as B)”, the IC50 [1] was 18.4 nM and the “NRAS /KRAS” value [2] was “B (a compound having 3 or more and less than 10 is denoted as B)”. It also gave a Kd [3] of 0.26 nM.
In the case of `CCO[C@@H]1C[C@H]2C(=O)NC3(CCC3)C(=O)N(C)[C@@H](C3CCCC3)C(=O)N(C)[C@H](C(=O)N3CCOCC3)CC(=O)N(C)[C@@H](CC3CCCCC3)C(=O)N[C@@H]([C@@H](C)CC)C(=O)N(C)CC(=O)N(C)[C@H]3C/C=C\CCN(C3=O)[C@@H](Cc3ccc(C)cc3)C(=O)N(C)CC(=O)N[C@@H](CCc3cc(F)c(C(F)(F)F)c(F)c3)C(=O)N2C1` [PP1420], the “HRAS /KRAS” value (HRAS wild-type protein) is reported as “A (a compound having 10 or more and less than 20 is denoted as A)”, the IC50 [1] is reported as 31.4 nM and the “NRAS /KRAS” value [2] is reported as “A (a compound having 10 or more and less than 20 is denoted as A)”. For the same molecule, the Kd [3] was 0.35 nM.
With `CCO[C@@H]1C[C@H]2C(=O)NC3(CCC3)C(=O)N(C)[C@@H](C3CCCC3)C(=O)N(C)[C@H](C(=O)N3CCOCC3)CC(=O)N(C)[C@@H](CC3CCC3)C(=O)N[C@@H]([C@@H](C)CC)C(=O)N(C)CC(=O)N(C)[C@H]3C/C=C\CCN(C3=O)[C@@H](Cc3ccc(C(F)(F)F)cc3)C(=O)N(C)CC(=O)N[C@@H](CCc3cc(F)c(C(F)(F)F)c(F)c3)C(=O)N2C1` [PP1422] the “HRAS /KRAS” value (HRAS wild-type protein) was “A (a compound having 10 or more and less than 20 is denoted as A)”, the IC50 [1] was 14.1 nM and the “NRAS /KRAS” value [2] was “AA (a compound having 20 or more is denoted as AA)”. For the same molecule, the Kd [3] was 0.22 nM.
For `CCO[C@@H]1C[C@H]2C(=O)NC3(CCC3)C(=O)N(C)[C@@H](C3CCCC3)C(=O)N(C)[C@H](C(=O)N3CCCC3)CC(=O)N(C)[C@@H](CC3CCC3)C(=O)N[C@@H]([C@@H](C)CC)C(=O)N(C)CC(=O)N(C)[C@H]3C/C=C\CCN(C3=O)[C@@H](Cc3ccc(C)cc3)C(=O)N(C)CC(=O)N[C@@H](CCc3cc(F)c(C(F)(F)F)c(F)c3)C(=O)N2C1` [PP1425], the “HRAS /KRAS” value (HRAS wild-type protein) was “B (a compound having 3 or more and less than 10 is denoted as B)”, the IC50 [1] was 20.2 nM and the “NRAS /KRAS” value [2] was “A (a compound having 10 or more and less than 20 is denoted as A)”. The Kd [3] was 0.24 nM.
In the case of `CCO[C@@H]1C[C@H]2C(=O)NC3(CCC3)C(=O)N(C)[C@@H](C(CC)CC)C(=O)N(C)[C@H](C(=O)N(C)C)CC(=O)N(C)[C@@H](CC3CC3)C(=O)N[C@@H]([C@@H](C)CC)C(=O)N(C)CC(=O)N(C)[C@H]3C/C=C\CCN(C3=O)[C@@H](CC3CCCCC3)C(=O)N(C)CC(=O)N[C@@H](CCc3cc(F)c(C(F)(F)F)c(F)c3)C(=O)N2C1` [PP1428], the “HRAS /KRAS” value (HRAS wild-type protein) is reported as “A (a compound having 10 or more and less than 20 is denoted as A)”, the IC50 [1] is reported as 38.8 nM and the “NRAS /KRAS” value [2] is reported as “AA (a compound having 20 or more is denoted as AA)”. It also gave a Kd [3] of 0.87 nM.
For `CCO[C@@H]1C[C@H]2C(=O)NC3(CCC3)C(=O)N(C)[C@@H](C(CC)CC)C(=O)N(C)[C@H](C(=O)N(C)C)CC(=O)N(C)[C@@H](CC3CCCC3)C(=O)N[C@@H]([C@@H](C)CC)C(=O)N(C)CC(=O)N(C)[C@H]3C/C=C\CCN(C3=O)[C@@H](CC3CCCCC3)C(=O)N(C)CC(=O)N[C@@H](CCc3cc(F)c(C(F)(F)F)c(F)c3)C(=O)N2C1` [PP1430], the “HRAS /KRAS” value (HRAS wild-type protein) was “A (a compound having 10 or more and less than 20 is denoted as A)”, the IC50 [1] was 70.4 nM and the “NRAS /KRAS” value [2] was “A (a compound having 10 or more and less than 20 is denoted as A)”. For the same molecule, the Kd [3] was 0.85 nM.
`CCO[C@@H]1C[C@H]2C(=O)NC3(CCC3)C(=O)N(C)[C@@H](C(CC)CC)C(=O)N(C)[C@H](C(=O)N(C)C)CC(=O)N(C)[C@@H](CC3CCCC3)C(=O)N[C@@H]([C@@H](C)CC)C(=O)N(C)CC(=O)N(C)[C@H]3C/C=C\CCN(C3=O)[C@@H](CC3CCC(F)(F)CC3)C(=O)N(C)CC(=O)N[C@@H](CCc3cc(F)c(C(F)(F)F)c(F)c3)C(=O)N2C1` [PP1431] was tested, and the “HRAS /KRAS” value (HRAS wild-type protein) was “A (a compound having 10 or more and less than 20 is denoted as A)”, the IC50 [1] was 41.2 nM and the “NRAS /KRAS” value [2] was “AA (a compound having 20 or more is denoted as AA)”. It also gave a Kd [3] of 0.57 nM.
With `CCO[C@@H]1C[C@H]2C(=O)NC3(CCC3)C(=O)N(C)[C@@H](C(CC)CC)C(=O)N(C)[C@H](C(=O)N3CCCC3)CC(=O)N(C)[C@@H](C)C(=O)N[C@@H]([C@@H](C)CC)C(=O)N(C)CC(=O)N(C)[C@H]3C/C=C\CCN(C3=O)[C@@H](CC3CCCCC3)C(=O)N(C)CC(=O)N[C@@H](CCc3cc(F)c(C(F)(F)F)c(F)c3)C(=O)N2C1` [PP1434] the “HRAS /KRAS” value (HRAS wild-type protein) was “A (a compound having 10 or more and less than 20 is denoted as A)”, the IC50 [1] was 112 nM and the “NRAS /KRAS” value [2] was “A (a compound having 10 or more and less than 20 is denoted as A)”. It also gave a Kd [3] of 0.69 nM.
